Source: patent publication US7541371B2, “Method for treating a motor neuron disease” (Eisai R&D Management Co., Ltd., priority 2006, dated 2009)
Values belong to the compound of their own block, whether it stands above or below them.

Assays:
5-HT1A receptor [1] = target: T1, 5-HT1A receptor (Sus scrofa, UniProt A0A4X1UTF5); test: Test on affinity for serotonin 1A receptor ([3H]MPPF, hippocampus membrane fraction); type: binding, swine; conditions: low affinity IC50 divided by high affinity IC50; not more than 1 = no intrinsic activity, not less than 2 = intrinsic activity
T1 construct: to a swine hippocampus membrane fraction; from tissue; host or cells: swine hippocampus
T1 sequence (A0A4X1UTF5 1-422): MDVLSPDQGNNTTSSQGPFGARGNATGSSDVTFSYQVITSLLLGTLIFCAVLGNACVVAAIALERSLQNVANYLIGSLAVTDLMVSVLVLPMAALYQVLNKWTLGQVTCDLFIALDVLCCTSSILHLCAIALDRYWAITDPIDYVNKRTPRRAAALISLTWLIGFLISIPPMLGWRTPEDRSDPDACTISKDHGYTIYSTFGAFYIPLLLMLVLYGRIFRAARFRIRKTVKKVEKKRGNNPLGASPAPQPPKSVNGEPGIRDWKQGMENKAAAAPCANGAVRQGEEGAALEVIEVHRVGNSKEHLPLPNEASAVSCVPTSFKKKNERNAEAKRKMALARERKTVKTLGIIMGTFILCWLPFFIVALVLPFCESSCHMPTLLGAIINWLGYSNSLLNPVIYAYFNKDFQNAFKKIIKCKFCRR
Experimental: The affinity of test compounds for the 5-HT1A receptor was determined by an experiment for inhibition of a test compound against the binding of [^3H]-4-(2′-Methoxy)phenyl-1-[2′-(N-2″-pyridinyl)-p-fluorobenzamido]ethyl-piperazine (MPPF), selectively bound to the 5-HT1A receptor, to a swine hippocampus membrane fraction. The 5-HT1A receptor, which is a G protein binding receptor, is brought to a G protein bound state upon the addition of MgCl2, and is brought to a G protein nonbound state upon the addition of guanylylimidodiphosphate (Gpp(NH)p). It is generally known that a G protein receptor agonist has stronger affinity for the G protein bound receptor depending upon the level of the intrinsic activity. Accordingly, the affinity of a test compound for the receptor in a G protein nonbound state and the affinity of the test compound for the receptor in a G protein bound state were determined and compared with each other to estimate the level of the intrinsic activity of the test compound.
The greater this value, the higher the intrinsic activity.
Swine hippocampus was homogenized in an ice-cooled 50 mM Tris hydrochloride buffer (pH 7.4; hereinafter referred to as buffer A). The suspension was centrifuged at 40,000×g for 15 min. The resultant sediment was suspended in buffer A, and the suspension was then centrifuged at 40,000×g for 15 min. The same procedure was further repeated twice or three times. The finally obtained sediment was suspended in buffer A in an amount of about ten times larger than the wet weight of the swine hippocampus to prepare a membrane fraction which was then stored at −80° C. until use.
A mixture (0.5 mL) for incubation, containing an appropriate amount of the membrane fraction, a test compound in a desired concentration, MgCl2 (final concentration: 10 mM) or Gpp(NH)p (final concentration: 1 mM), [^3H]MPPF (final concentration: 0.5 nM), dimethyl sulfoxide (final concentration: 1% (v/v)), and 50 mM Tris hydrochloride buffer (pH 7.4), was provided. Upon the addition of the membrane fraction, a reaction started, and the mixture was incubated at 37° C. for 30 min. After the incubation, the incubated mixture was suction filtered through a glass filter with a cell harvester. After washing the glass filter with ice-cooled buffer A, the radioactivity bound to the receptor was measured with a liquid scintillation counter. The binding detected in the presence of 10 μM WAY-100,635. was regarded as nonspecific binding.

rat motor neuron cells [2] = test: Evaluation of toxicity of 5HT in rat motor neuron primary pure culture system; type: cell-based
Experimental: Rat motor neuron cells were subjected to pure culture in the presence of 30 ng/mL BDNF for three days, and toxicity of serotonin (5HT) was evaluated.
The rat motor neuron primary pure culture was carried out by a method which is modification of Nishijima et al. method (Nishijima C. et al., J Neurochem 76, 383-390(2001)) by incorporating a purification method and the like in the Nishijima et al. method.
A necessary number of Greiner-4-well dishes (10 mm i.d. wells) (Greiner bio-one) were provided, and 0.15 M sodium borate buffer (pH 8.3) containing 0.5 mg/mL poly-L-ornithine was added at 100 μL/well followed by standing at 4° C. overnight. Ornithine was removed by suction, the residue was washed three times with PBS(−), and L-15 (CO2) containing 10 μg/mL laminin (Gibco-BRL) was spread at 50 μL/well. […]
Wistar pregnant rats (fifteen days pregnant) (Tokyo Laboratory Animals Science Co., Ltd.) were etherized and were then sacrificed by cervical dislocation. […] One hr after the start of the culture, serotonin (serotonin creatinine sulfate complex, Sigma) or glutamate (Sigma) was added thereto, and, three hr after that, the initial viable cell count was measured. The viable cell count was again measured three days after the cell seeding, and the survival rate was calculated based on the initial viable cell count. […]

rat motor neuron cells [3] = test: Inhibition of 5HT toxicity in rat motor neuron primary pure culture system; type: cell-based; conditions: survival three days after seeding; for Inhibition of 5HT toxicity (survival rate): antagonist added 5 to 10 min before 5HT, FIG. 2, FIG. 3
Experimental: (§1) Based on the results of cell measurement, the rat motor neuron cells were diluted with the culture solution to 1.1 to 1.2×10^4 cells/mL. Greiner 4-well dishes previously coated with poly-L-ornithine/laminin were seeded with the cell suspension at 90 μL/well with a 1 mL Pipetman. […] The initial viable cell count was measured three hr after the addition of serotonin (5HT). The viable cell count was again measured three days after the cell seeding, and the survival rate was calculated based on the initial viable cell count. The cell count measurement was carried out under a phase-contrast microscope using marks previously applied on the backside of the Greiner 4-well dish as a reference.
as §1

5-HT1A receptor [4] = target: T1, 5-HT1A receptor; conditions: receptor in G protein bound state (MgCl2 10 mM), 0.5 nM [3H]MPPF, swine hippocampus membrane; WO 2005/108389; read-out: High affinity; cited from earlier work
serotonin 2 receptor = target: T2, serotonin 2 receptor (Mus musculus, UniProt P35363); test: Mouse head twitch behavior test (tryptamine-induced); type: in vivo; conditions: tryptamine 30 mg/kg i.v.; test compound 15 min before; FIG. 7
T2 construct: known to induce mouse head twitch behavior through a serotonin 2 receptor; from tissue; host or cells: living mouse (in vivo behaviour test)
T2 sequence (P35363 whole entry): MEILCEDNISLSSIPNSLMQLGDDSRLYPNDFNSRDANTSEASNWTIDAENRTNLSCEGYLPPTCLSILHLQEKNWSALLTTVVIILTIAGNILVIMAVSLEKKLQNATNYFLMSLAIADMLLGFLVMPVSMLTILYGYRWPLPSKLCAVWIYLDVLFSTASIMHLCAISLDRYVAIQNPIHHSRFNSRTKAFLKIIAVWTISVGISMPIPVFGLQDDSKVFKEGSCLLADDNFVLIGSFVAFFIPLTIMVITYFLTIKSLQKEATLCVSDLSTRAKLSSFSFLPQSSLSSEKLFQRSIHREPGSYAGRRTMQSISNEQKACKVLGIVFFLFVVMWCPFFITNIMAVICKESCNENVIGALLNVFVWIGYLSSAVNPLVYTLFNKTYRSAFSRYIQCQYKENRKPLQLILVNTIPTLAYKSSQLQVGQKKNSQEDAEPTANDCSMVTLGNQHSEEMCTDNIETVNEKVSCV
Experimental: The serotonin 2 receptor antagonist activity of test compounds was determined by a mouse head twitch behavior test. Tryptamine is a serotonin 2 receptor agonist and is known to induce mouse head twitch behavior through a serotonin 2 receptor. Accordingly, the serotonin 2 receptor antagonist activity of the test compounds can be evaluated based on the head twitch behavior by tryptamine. Tryptamine was administered intravenously to mice at 30 mg/kg, and the number of times of appearance of the head twitch within one min after the start of administration counted. The test compounds (compounds 1 and 4) were administered 15 min before the intravenous administration of tryptamine.
[^3H]8-hydroxy-dipropylaminotetralin is known to be used for the measurement of binding of test compounds to serotonin 1A receptors (European Journal of Pharmacology, 90, p. 151-153, 1983.). Further, [^3H]ketanserin is known to be used for the measurement of binding of test compounds to serotonin 2A receptors (Brian Dean and Wendy Hayes, Schizophrenia Research, 21, p. 133-139, 1996.). Furthermore, the test on mouse head twitch behavior with tryptamine is known to be used for the measurement of the serotonin 2 receptor antagonist activity of test compounds (Yamada J., et al., European Journal of Pharmacology, 140, p. 323-330, 1987; and Yamada J., et al., Neuropharmacology, 26, p. 49-53, 1987.).

L/H ratio (5-HT1A receptor [1]): 1.3
SMILES: COc1cc2onc(C)c2cc1CCN1CCC(n2ccc3ccc(C(N)=O)cc32)CC1 [Compound 13, 1-{1-[2-(6-methoxy-3-methylbenzo[d]isoxazol-5-yl)ethyl]piperidin-4-yl}-1H-indole-6-carboxamide]

L/H ratio (5-HT1A receptor [1]): 1.6
SMILES: COc1ccc2c(C)noc2c1CCN1CCC(n2ccc3ccc(C(N)=O)cc32)CC1 [Compound 14, 1-{1-[2-(6-methoxy-3-methylbenzo[d]isoxazol-7-yl)ethyl]piperidin-4-yl}-1H-indole-6-carboxamide]

L/H ratio (5-HT1A receptor [1]): 0.7
SMILES: COc1ccc2nc(C)oc2c1CCN1CCC(n2ccc3ccc(C(N)=O)cc32)CC1 [Compound 12, 1-{1-[2-(6-methoxy-2-methylbenzoxazol-7-yl)ethyl]piperidin-4-yl}-1H-indole-6-carboxamide]

SMILES: NCCc1c[nH]c2ccc(O)cc12 [Compound 5HT, serotonin]
5HT toxicity compared with glutamate toxicity (rat motor neuron cells [2]; serum-free culture solution, FIG. 1B): comparable with glutamate toxicity
Toxicity of 5HT (survival rate of motor neuron cells) (rat motor neuron cells [2]; three days culture, 30 ng/mL BDNF, FIG. 1A): showed toxicity in a concentration-dependent manner

SMILES: COc1ccccc1N1CCN(CCCCN2C(=O)c3ccccc3C2=O)CC1 [NAN-190]
Inhibition of 5HT toxicity (survival rate) (rat motor neuron cells [3]): inhibited

L/H ratio (5-HT1A receptor [1]): 0.8
SMILES: COc1ccc2c(c1CCN1CCC(n3ccc4ccc(C(N)=O)cc43)CC1)OC(C)(C)CC2=O [Compound 10, 1-{1-[2-(7-methoxy-2,2-dimethyl-4-oxochroman-8-yl)ethyl]piperidin-4-yl}-1H-indole-6-carboxamide]
IC50 (5-HT1A receptor [4]): 0.13 nM

SMILES: NCCOB(c1ccccc1)c1ccccc1 [Compound 2-APB]
Inhibition of 5HT toxicity (survival rate) (rat motor neuron cells [3]): inhibition of 5HT excitotoxicity

L/H ratio (5-HT1A receptor [1]): 0.8
SMILES: CNC(=O)c1ccc2ccn(C3CCN(CCc4c(OC)ccc5c4OC(C)(C)CC5=O)CC3)c2c1 [Compound 9, 1-{1-[2-(7-methoxy-2,2-dimethyl-4-oxochroman-8-yl)ethyl]piperidin-4-yl}-N-methyl-1H-indole-6-carboxamide]
IC50 (5-HT1A receptor [4]): 0.2 nM

L/H ratio (5-HT1A receptor [1]): 0.9
SMILES: COc1cc2oc(C)nc2cc1CCN1CCC(n2ccc3ccc(C(N)=O)cc32)CC1 [Compound 11, 1-{1-[2-(6-methoxy-2-methylbenzoxazol-5-yl)ethyl]piperidin-4-yl}-1H-indole-6-carboxamide]

L/H ratio (5-HT1A receptor [1]): 0.9
SMILES: COc1cc2c(cc1CCN1CCC(n3ccc4ccc(C(N)=O)cc43)CC1)OCCO2 [Compound 15, 1-{1-[2-(7-methoxy-2,3-dihydrobenzo[1,4]dioxin-6-yl)ethyl]piperidin-4-yl}-1H-indole-6-carboxamide]

SMILES: OC(c1ccccc1)C1CCN(CCc2ccccc2)CC1 (stereo not shown) [MDL-11939]
Inhibition of 5HT toxicity (survival rate) (rat motor neuron cells [3]): inhibited

SMILES: CNC(=O)Cc1ccc2ccn(C3CCN(CCc4ccccc4F)CC3)c2c1 [Compound 1, N-methyl-{1-[1-(2-fluorophenethyl)piperidin-4-yl]-1H-indol-6-yl}acetamide]
Serotonin 2A receptor antagonist activity (head twitch by tryptamine) (serotonin 2 receptor): excellent serotonin 2A receptor antagonist activity
Concentration at which 5HT excitotoxicity is inhibited (rat motor neuron cells [3]; compound added 5 to 10 min before 5HT, FIG. 5, FIG. 6): not less than 0.1 nM
